Experimental findings from ChEMBL document CHEMBL5212743, “Selectivity Literature for EUbOPEN Chemogenomics Library wave 3” (2023) are described below.

Test [1] concerns the target T1, Ephrin type-B receptor 6 (Homo sapiens) (UniProt O15197).
T1 sequence (whole entry): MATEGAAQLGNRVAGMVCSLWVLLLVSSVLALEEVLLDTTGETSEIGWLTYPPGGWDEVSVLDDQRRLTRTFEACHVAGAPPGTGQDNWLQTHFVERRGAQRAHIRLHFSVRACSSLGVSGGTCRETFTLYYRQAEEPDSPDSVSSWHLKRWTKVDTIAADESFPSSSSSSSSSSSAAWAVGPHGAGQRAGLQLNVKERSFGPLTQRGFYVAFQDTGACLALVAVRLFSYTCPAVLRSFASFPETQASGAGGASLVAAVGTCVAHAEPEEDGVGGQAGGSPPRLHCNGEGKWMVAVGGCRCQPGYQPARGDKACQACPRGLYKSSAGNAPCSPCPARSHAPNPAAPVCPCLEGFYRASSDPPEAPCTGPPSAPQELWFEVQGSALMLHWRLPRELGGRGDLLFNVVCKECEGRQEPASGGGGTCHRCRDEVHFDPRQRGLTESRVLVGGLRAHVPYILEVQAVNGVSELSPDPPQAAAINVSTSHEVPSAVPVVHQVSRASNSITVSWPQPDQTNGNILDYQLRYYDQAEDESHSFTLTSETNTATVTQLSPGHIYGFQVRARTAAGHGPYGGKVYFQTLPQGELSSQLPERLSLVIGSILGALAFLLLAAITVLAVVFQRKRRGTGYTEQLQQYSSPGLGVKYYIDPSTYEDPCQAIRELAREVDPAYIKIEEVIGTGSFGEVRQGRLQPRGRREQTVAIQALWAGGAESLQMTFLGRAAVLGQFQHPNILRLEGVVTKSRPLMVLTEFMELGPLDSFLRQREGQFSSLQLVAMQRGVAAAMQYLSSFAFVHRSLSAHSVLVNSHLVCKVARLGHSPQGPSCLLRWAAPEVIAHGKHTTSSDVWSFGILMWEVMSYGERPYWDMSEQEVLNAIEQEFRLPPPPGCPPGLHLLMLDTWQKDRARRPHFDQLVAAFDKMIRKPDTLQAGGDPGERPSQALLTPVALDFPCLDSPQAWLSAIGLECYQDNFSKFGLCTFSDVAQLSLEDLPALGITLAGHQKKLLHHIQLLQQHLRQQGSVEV
Put plainly: Selectivity interaction (KinomeScan (Eurofins)) EUB0000250b EPHB6. As to conditions: at 1 µM.

Test [2] has as its target Tyrosine-protein kinase Fer (Homo sapiens, UniProt P16591). The test is described as follows: Selectivity interaction (KinomeScan (Eurofins)) EUB0000250b FER. The note with it: at 1 µM.
Test [3] deals with Ephrin type-A receptor 5 (Homo sapiens) (UniProt P54756). The test is described as follows: Selectivity interaction (KinomeScan (Eurofins)) EUB0000250b EPHA5. As to conditions: at 1 µM.
In test [4] the target is Ephrin type-B receptor 3 (Homo sapiens) (UniProt P54753). Put plainly: Selectivity interaction (KinomeScan (Eurofins)) EUB0000250b EPHB3. As to conditions: at 1 µM.
The target in test [5] is Leukocyte tyrosine kinase receptor (Homo sapiens, UniProt P29376). Put plainly: Selectivity interaction (KinomeScan (DiscoverX)) EUB0000250b LTK. The note with it: at 1 µM.
Test [6] has as its target Epidermal growth factor receptor (Homo sapiens, UniProt P00533). Put plainly: Selectivity interaction (KinomeScan (DiscoverX)) EUB0000250b EGFR. As to conditions: at 1 µM.
Test [7] addresses Cyclin-dependent kinase 5 (Homo sapiens) (UniProt Q00535). Put plainly: Selectivity interaction (KinomeScan (DiscoverX)) EUB0000347a CDK5. As to conditions: at 1 µM.
The target of test [8] is T2, Mitogen-activated protein kinase kinase kinase 13 (Homo sapiens) (UniProt O43283).
T2 sequence (whole entry): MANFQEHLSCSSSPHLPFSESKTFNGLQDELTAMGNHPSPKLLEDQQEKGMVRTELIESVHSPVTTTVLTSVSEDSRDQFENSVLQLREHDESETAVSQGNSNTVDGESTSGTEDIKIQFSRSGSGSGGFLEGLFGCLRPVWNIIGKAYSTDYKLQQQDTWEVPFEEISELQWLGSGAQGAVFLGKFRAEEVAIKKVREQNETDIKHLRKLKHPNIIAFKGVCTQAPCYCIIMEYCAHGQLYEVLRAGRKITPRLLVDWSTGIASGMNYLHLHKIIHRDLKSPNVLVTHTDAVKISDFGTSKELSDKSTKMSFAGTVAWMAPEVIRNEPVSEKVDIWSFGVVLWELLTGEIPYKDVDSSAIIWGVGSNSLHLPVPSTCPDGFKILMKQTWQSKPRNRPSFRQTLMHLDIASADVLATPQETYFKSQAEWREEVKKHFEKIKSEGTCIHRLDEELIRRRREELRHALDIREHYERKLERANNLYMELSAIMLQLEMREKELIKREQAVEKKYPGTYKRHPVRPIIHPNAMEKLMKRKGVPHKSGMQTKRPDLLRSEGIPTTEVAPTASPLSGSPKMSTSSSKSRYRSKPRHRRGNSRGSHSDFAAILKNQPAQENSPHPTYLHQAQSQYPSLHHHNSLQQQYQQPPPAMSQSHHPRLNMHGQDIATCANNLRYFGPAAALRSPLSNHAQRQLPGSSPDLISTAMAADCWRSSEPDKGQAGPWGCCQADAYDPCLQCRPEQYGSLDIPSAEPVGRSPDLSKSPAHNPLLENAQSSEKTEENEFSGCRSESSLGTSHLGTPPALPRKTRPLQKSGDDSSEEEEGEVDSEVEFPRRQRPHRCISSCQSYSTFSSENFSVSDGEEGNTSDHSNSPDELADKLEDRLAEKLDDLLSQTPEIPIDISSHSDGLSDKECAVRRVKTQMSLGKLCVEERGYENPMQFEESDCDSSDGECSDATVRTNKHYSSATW
Put plainly: Selectivity interaction (KinomeScan (DiscoverX)) EUB0000347a MAP3K13. The note with it: at 1 µM.

For test [9], the target named is 5'-AMP-activated protein kinase catalytic subunit alpha-1 (Homo sapiens, UniProt Q13131). Put plainly: Selectivity interaction (KinomeScan (DiscoverX)) EUB0000347a PRKAA1. The note with it: at 1 µM.
For test [10], the target named is Dual specificity protein kinase CLK4 (Homo sapiens) (UniProt Q9HAZ1). Put plainly: Selectivity interaction (KinomeScan (DiscoverX)) EUB0000347a CLK4. The note with it: at 1 µM.
Test [11] deals with T3, Phosphatidylinositol 5-phosphate 4-kinase type-2 beta (Homo sapiens) (UniProt P78356).
T3 sequence (whole entry): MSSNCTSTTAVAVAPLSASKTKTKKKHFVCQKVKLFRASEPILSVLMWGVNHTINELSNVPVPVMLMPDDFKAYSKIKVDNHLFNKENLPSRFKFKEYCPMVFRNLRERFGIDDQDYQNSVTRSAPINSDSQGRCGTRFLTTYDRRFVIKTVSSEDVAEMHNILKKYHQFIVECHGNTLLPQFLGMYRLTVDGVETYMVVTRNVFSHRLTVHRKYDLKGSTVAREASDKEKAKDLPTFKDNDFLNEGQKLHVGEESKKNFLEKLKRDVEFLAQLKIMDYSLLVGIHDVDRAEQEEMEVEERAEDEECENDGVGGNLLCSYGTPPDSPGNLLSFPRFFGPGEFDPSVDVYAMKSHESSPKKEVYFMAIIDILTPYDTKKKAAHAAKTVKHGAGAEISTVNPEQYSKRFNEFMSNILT
Put plainly: Selectivity interaction (KinomeScan (DiscoverX)) EUB0000738a PIP4K2B. The note with it: at 1 µM.

Test [12] addresses Dual specificity tyrosine-phosphorylation-regulated kinase 1B (Homo sapiens, UniProt Q9Y463). The test is described as follows: Selectivity interaction (KinomeScan (DiscoverX)) EUB0000738a DYRK1B. As to conditions: at 1 µM.
Test [13] addresses NT-3 growth factor receptor (Homo sapiens, UniProt Q16288). The test is described as follows: Selectivity interaction (KinomeScan (DiscoverX)) EUB0000294b NTRK3. The note with it: at 1 µM.
Test [14] addresses Aurora kinase A (Homo sapiens) (UniProt O14965). Put plainly: Selectivity interaction (KinomeScan (DiscoverX)) EUB0000294b STK6. The note with it: at 1 µM.
Test [15] deals with Sodium-dependent dopamine transporter (Homo sapiens, UniProt Q01959). Put plainly: Selectivity interaction (GPCR panel (PDSP screen)) EUB0000294b SLC6A3. The note with it: at 10 µM.
Another test deals with Nischarin (Homo sapiens) (UniProt Q9Y2I1). The test is described as follows: Selectivity interaction (MDS Pharma Service panel (GPCR, ion channels, receptors, and other enzymes, radioligand binding assays)) EUB0000294b NISCH. As to conditions: at 10 µM.
Sequence of Nischarin (Homo sapiens) (Q9Y2I1 whole entry): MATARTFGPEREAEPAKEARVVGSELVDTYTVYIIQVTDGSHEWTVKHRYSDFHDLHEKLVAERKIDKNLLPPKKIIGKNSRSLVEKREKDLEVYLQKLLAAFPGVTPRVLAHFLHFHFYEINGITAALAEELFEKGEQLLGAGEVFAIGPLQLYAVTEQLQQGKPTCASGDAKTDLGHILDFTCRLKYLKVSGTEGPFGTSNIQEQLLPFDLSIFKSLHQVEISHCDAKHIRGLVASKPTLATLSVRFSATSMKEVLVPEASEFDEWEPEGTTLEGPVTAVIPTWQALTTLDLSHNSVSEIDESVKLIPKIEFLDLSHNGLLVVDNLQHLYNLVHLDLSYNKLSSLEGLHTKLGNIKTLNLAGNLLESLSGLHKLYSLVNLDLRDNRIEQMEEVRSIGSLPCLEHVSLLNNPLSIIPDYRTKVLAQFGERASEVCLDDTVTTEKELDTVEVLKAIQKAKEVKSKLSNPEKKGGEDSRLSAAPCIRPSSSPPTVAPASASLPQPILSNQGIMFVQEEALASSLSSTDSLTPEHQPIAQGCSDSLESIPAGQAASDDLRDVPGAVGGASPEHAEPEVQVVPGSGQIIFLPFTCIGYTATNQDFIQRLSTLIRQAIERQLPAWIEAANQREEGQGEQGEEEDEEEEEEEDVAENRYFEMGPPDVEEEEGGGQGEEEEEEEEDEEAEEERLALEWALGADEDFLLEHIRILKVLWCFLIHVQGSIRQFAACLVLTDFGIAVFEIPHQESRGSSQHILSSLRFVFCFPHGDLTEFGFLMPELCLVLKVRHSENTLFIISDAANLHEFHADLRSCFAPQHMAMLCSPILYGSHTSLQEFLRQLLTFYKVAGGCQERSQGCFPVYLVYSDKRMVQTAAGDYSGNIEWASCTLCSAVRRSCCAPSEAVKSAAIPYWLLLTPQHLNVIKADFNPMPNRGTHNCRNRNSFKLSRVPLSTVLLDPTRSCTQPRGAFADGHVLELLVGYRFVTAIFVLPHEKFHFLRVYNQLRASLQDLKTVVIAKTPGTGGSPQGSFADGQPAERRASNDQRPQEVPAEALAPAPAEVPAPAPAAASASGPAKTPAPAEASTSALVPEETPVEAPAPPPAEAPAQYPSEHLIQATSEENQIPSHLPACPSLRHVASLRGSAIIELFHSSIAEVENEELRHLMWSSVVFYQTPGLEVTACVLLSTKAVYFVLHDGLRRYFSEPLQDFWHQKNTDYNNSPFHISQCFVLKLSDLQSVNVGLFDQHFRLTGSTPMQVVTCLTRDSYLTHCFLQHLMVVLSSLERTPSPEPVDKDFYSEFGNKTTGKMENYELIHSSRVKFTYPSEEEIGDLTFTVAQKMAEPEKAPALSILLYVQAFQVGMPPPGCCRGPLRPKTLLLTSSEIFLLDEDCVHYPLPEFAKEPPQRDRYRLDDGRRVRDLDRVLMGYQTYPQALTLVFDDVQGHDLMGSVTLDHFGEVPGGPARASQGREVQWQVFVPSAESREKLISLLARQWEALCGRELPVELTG
For test [16], the target named is T4, Serine/threonine-protein kinase LATS1 (Homo sapiens) (UniProt O95835).
T4 sequence (whole entry): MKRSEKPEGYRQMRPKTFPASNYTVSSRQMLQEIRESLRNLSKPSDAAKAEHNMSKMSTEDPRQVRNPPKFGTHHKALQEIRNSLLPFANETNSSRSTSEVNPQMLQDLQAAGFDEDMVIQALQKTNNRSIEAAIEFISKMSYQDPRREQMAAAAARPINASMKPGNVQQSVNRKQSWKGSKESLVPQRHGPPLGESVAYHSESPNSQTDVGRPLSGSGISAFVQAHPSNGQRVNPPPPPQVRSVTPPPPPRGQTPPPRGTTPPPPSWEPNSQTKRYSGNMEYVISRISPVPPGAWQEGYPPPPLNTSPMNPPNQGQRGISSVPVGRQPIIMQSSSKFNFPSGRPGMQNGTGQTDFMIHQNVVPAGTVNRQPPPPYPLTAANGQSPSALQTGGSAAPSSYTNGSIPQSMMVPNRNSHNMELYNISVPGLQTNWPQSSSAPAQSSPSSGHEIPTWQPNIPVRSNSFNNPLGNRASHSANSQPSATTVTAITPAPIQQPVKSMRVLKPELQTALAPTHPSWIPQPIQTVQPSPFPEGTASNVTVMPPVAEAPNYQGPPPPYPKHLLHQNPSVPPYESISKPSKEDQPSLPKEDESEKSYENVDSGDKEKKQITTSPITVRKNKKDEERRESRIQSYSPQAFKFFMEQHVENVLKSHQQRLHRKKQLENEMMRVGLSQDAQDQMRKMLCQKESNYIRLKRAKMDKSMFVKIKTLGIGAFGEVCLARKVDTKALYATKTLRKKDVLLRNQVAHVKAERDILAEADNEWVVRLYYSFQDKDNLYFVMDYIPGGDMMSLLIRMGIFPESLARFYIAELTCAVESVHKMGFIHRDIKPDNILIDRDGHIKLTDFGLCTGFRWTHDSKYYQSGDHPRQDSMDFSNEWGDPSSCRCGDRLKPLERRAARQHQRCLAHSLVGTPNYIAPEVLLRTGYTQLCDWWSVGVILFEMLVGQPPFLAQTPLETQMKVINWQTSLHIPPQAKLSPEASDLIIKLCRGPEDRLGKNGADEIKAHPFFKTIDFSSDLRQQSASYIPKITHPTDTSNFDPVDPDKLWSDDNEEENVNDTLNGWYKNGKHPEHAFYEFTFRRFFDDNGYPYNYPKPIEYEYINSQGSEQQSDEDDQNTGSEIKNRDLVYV
The test is described as follows: Selectivity interaction (KinomeScan (DiscoverX)) EUB0000294b LATS1. As to conditions: at 1 µM.

In test [17] the target is T5, Dual specificity mitogen-activated protein kinase kinase 5 (Homo sapiens) (UniProt Q13163).
T5 sequence (whole entry): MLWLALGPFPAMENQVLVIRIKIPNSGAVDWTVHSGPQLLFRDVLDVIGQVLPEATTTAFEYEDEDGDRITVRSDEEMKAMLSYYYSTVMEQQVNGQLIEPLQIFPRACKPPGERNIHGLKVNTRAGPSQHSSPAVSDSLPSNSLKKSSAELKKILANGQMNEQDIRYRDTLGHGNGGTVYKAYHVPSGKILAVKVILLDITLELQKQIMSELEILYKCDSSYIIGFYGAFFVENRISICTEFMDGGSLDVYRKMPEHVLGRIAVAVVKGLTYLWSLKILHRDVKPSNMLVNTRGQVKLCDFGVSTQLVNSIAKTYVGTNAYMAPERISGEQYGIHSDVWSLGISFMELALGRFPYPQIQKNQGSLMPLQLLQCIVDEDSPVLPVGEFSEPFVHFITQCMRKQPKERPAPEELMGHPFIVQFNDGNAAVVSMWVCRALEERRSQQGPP
Put plainly: Selectivity interaction (KinomeScan (DiscoverX)) EUB0000294b MAP2K5. The note with it: at 1 µM.

The target in test [18] is Cyclin-dependent kinase-like 2 (Homo sapiens) (UniProt Q92772). Put plainly: Selectivity interaction (KinomeScan (DiscoverX)) EUB0000240b CDKL2. As to conditions: at 1 µM.
Sequence of Cyclin-dependent kinase-like 2 (Homo sapiens) (Q92772 whole entry): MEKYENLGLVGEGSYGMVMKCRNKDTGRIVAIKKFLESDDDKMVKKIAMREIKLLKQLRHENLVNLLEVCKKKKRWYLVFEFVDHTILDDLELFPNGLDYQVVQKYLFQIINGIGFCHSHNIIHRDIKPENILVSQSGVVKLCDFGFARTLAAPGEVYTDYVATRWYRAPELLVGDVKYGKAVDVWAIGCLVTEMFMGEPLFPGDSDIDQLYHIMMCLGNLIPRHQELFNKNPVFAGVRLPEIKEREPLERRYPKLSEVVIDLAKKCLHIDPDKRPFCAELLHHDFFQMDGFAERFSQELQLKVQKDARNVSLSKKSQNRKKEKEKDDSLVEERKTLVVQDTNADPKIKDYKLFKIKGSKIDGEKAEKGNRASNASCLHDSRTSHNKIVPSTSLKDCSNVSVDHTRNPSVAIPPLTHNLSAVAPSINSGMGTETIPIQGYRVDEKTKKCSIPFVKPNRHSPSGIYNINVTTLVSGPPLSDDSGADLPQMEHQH
The target in test [19] is Kappa-type opioid receptor (Homo sapiens, UniProt P41145). Put plainly: Selectivity interaction (SafetyScreen44™ (Eurofins, ion channels, GPCRs, hydrolases, and other enzymes)) EUB0000282b OPRK1. As to conditions: at 10 µM.
Sequence of Kappa-type opioid receptor (P41145 whole entry): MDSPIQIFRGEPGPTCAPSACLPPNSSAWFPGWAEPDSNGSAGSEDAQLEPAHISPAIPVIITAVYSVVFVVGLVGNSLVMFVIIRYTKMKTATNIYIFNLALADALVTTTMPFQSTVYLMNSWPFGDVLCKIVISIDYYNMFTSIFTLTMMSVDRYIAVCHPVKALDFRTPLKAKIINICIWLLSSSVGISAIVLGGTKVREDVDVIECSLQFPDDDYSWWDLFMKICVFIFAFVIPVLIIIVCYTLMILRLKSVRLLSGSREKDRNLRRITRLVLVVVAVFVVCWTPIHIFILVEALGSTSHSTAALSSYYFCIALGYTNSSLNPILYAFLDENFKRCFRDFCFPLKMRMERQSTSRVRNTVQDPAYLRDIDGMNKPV

Sequence of Aurora kinase A (Homo sapiens) (O14965 whole entry): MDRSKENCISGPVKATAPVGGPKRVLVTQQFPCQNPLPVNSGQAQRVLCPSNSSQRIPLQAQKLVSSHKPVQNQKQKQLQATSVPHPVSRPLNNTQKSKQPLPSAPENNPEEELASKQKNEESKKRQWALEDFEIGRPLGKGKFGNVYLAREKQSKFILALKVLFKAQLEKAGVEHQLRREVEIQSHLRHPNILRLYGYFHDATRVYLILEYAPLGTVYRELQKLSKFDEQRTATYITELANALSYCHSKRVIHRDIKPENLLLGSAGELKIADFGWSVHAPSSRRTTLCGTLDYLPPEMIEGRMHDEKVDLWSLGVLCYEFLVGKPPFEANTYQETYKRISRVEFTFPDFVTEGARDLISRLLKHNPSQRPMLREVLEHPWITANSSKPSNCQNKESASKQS
Sequence of NT-3 growth factor receptor (Q16288 32-839 limits assumed): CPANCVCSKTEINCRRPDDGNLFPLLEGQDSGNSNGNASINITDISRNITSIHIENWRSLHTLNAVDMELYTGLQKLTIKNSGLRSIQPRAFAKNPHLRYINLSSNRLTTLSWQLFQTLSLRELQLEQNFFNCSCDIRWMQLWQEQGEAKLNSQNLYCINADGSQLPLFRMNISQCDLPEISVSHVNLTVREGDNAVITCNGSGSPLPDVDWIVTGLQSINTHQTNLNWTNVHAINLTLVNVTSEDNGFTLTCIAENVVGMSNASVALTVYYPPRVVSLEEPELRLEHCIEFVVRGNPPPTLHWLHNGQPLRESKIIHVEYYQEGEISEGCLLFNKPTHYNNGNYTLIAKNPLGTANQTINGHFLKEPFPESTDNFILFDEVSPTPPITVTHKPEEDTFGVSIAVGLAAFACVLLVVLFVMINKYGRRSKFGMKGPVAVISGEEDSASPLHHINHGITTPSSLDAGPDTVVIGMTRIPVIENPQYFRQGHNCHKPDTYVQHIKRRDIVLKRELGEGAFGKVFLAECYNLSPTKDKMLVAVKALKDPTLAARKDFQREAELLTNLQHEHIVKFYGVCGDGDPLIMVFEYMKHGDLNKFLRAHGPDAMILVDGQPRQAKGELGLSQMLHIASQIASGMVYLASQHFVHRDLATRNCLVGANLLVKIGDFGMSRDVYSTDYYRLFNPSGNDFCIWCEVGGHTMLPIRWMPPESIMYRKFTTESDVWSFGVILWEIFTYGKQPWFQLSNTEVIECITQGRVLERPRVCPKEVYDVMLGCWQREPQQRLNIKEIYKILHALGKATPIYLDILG
Sequence of Tyrosine-protein kinase Fer (P16591 whole entry, looked up): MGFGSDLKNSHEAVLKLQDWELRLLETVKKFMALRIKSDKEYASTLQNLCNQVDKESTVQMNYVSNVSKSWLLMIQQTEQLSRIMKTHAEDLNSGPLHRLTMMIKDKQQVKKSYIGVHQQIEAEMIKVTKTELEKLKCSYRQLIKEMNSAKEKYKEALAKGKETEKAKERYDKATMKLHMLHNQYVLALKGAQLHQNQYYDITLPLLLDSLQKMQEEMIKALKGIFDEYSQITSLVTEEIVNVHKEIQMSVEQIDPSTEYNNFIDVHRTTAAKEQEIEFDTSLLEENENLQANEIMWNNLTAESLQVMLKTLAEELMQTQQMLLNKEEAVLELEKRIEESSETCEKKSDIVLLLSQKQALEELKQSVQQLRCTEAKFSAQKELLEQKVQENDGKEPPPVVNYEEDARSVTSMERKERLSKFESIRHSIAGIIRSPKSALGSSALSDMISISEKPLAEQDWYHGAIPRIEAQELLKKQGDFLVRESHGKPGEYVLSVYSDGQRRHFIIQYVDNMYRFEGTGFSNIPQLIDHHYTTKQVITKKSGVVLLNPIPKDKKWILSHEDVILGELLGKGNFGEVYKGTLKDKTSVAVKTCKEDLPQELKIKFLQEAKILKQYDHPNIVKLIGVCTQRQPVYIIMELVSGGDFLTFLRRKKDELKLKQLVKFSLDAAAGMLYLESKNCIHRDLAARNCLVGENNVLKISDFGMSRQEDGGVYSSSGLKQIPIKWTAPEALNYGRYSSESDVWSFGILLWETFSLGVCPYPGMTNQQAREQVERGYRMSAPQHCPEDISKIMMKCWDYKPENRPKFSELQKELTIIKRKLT
Sequence of Dual specificity tyrosine-phosphorylation-regulated kinase 1B (Q9Y463 whole entry, looked up): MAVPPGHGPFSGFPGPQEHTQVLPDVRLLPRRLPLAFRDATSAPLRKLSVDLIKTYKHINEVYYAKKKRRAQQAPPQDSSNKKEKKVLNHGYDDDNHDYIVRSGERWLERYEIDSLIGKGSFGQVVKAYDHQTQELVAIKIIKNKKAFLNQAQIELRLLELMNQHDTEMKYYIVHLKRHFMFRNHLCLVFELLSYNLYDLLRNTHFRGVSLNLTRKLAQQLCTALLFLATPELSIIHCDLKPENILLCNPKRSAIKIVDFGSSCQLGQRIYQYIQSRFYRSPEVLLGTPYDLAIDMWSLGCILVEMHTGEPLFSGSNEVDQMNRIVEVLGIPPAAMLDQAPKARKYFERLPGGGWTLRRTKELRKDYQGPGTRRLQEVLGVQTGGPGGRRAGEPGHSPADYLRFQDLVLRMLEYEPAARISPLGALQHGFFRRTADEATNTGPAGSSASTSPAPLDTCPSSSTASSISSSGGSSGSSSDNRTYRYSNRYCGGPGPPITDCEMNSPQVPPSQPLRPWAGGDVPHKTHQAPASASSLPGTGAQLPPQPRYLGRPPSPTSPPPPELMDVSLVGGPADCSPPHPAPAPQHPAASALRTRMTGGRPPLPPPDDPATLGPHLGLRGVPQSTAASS

Take `CN1CCN(c2cnc3c(C4CCN(C(=O)c5ccc(OC(F)(F)F)cc5N)CC4)ncnc3c2)CC1`: the % of control amounted to 18% in [1]; 38% in test [2]; 57% in [3]; 42% in [4]; 49% in test [5]; 38% in test [6].

Turning to `O=C(NCc1ncc(C(F)(F)F)cc1Cl)c1ccc2c(c1)C1(CCS(=O)(=O)CC1)[C@H](C1CC1)N2S(=O)(=O)c1ccc(F)cc1`, the % of control in test [7] is 0%; in test [8], 0%; in test [9], 39%; in test [10] it was 0%.

Regarding `CCC(=O)N[C@@H]1CC[C@H](C(=O)N(C)c2ccc(-c3nc4ccccc4o3)cc2)C1`, the % of control in test [11] turned out to be 45%; in [12], 36%.

For `CCC(=O)N[C@H]1CC[C@@H](C(=O)N(C)c2ccc(-c3nc4ccccc4o3)cc2)C1`, the % of control came to 32% in test [13], 43% in [14], 48% in test [16] and 16% in test [17]. The % of inhibition in test [15] was found to be 77%; at Nischarin (Homo sapiens), 19%.

For the compound `O=C(Nc1cnc(Oc2ccc(F)cc2)nc1)N1CCc2ncccc2[C@@H]1c1ccc(F)cc1`, the % of control in test [18] worked out at 33%.

With `O=C(NCc1ccc(F)cc1)C1CCN(S(=O)(=O)c2cc(Cl)cc(Cl)c2)CC1`, in test [19], the % of control turned out to be 19%.
